Columns and labels:
[1] = cited from earlier work
[2] = MgCl2 and Hy-D dosed into the rumen of fistulated cattle: urine pH, urine and blood plasma minerals; format: in vivo
Experimental: Four mature rumen fistulated cattle (approximately 600 kg […] in individual pens and offered 12 kg/day of good quality lucerne chaff throughout the experiment. After a 2 week adaptation to this diet the following treatments were applied daily over 2 weeks to each animal in a Latin Square Design: 1. no supplement (control) 2. […] 3. […]® 1.25% (5 mg 25-hydroxy vitamin D3) MgCl2 plus […]® 1.25 % Each treatment was dosed into the rumen through a cannula each morning during the 2 week experimental period. […] Urine pH was measured at time of collection; blood plasma was decanted after centrifugation and analyzed for calcium, magnesium, potassium, sodium and phosphorus by inductively coupled plasma atomic emission spectrophotometry. The results were analysed as a latin square design making comparisons between treatments after removal of any animal or period effects. The lucerne […] assayed for macro cations together with chloride and sulphur concentrations.

[3] = blood samples on days 7, 13 and 14
[4] = urine samples on days 12, 13 and 14

Structure (SMILES) | activity relative to 25-hydroxy vitamin D3 [1] | Blood Plasma composition Ca2+ [2, 3] | Blood Plasma composition K+ [2, 3] | Blood Plasma composition Mg2+ [2, 3] | Blood Plasma composition Na+ [2, 3] | Blood Plasma composition Phosphorus [2, 3] | Urine Composition Ca2+ [2, 4] | Urine Composition K+ [2, 4] | Urine Composition Mg2+ [2, 4] | Urine Composition Na+ [2, 4] | Urine Composition Phosphorus [2, 4] | Urine pH ([2]; urine samples on days 12, 13 and 14, measured at time of collection)
C=C1/C(=C\C=C2/CCC[C@]3(C)[C@@H]([C@H](C)CCCC(C)(C)O)CC[C@@H]23)C[C@@H](O)C[C@@H]1O [1-α-, 25-dihydroxy vitamin D3] | approximately 10 times |  |  |  |  |  |  |  |  |  |  | 
C=C1/C(=C\C=C2/CCC[C@]3(C)[C@@H]([C@H](C)CCCC(C)C)CC[C@@H]23)C[C@@H](O)C[C@@H]1O [1-α-hydroxy vitamin D3] | approximately 10 times |  |  |  |  |  |  |  |  |  |  | 
[Cl-].[Cl-].[Mg+2] [Mg, magnesium chloride] |  | 87 mg/L | 233 mg/L | 19 mg/L | 2280 mg/L | 74 mg/L | 397b mg/L | 6652 mg/L | 411 mg/L | 444 mg/L | 190 mg/L | 6.20b
